Assays:
Type in all cases: in vivo
[1] = tested on: Scirpus juncoides; assay: Test Example 1: herbicidal activity, application before weed generation in submerged conditions (symbol B); details: application herbicide amount 320 g/ha
In short: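 Weed control was rated three weeks after treatment on a 0–5 scale, from 5% or lower up to 90% or more. Pre-emergence water-surface application of diluted emulsion at a predetermined rate was made on the day of sowing, in flooded (4 cm water) pots containing rice seedlings, kept at 25–30 °C under glass.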

[2] = tested on: Echinochloa crus-galli var. crus-galli; assay: Test Example 3: herbicidal effect by foliage application, Wagner pot (symbol H); details: application herbicide amount 320 g/ha
In short: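 Seeds sown in alluvial soil kept under 0.1–0.5 cm water, greenhouse 25–30 °C; 14 d growth. Leaves treated by small sprayer with water-diluted emulsion at a predetermined rate. Effect graded by set scale, 3 weeks.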

[3] = tested on: Setaria viridis; assay: Test Example 4: herbicidal effect by soil treatment (symbol G); details: for G: Setaria viridis, herbicidal effect grade: 320 g/ha
In short: (§1)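 Seeds were sown in sterilized diluvial soil, covered with about 1.5 cm of soil, and the soil surface was sprayed with a water-diluted emulsion of the compound at a predetermined rate. Plants grew in a greenhouse at 25° C. to 30° C.; effects were scored visually 3 weeks after application.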

[4] = tested on: Echinochloa crus-galli var. crus-galli; assay: Test Example 4: herbicidal effect by soil treatment (symbol H); details: for H: Echinochloa crus-galli var. crus-galli, herbicidal effect grade: 320 g/ha
In short: as §1

[5] = tested on: Alopecurus myosuroides; assay: Test Example 4: herbicidal effect by soil treatment (symbol J); details: for J: Alopecurus myosuroides, herbicidal effect grade: 320 g/ha
In short: as §1

[6] = tested on: Lolium multiflorum Lam.; assay: Test Example 4: herbicidal effect by soil treatment (symbol K); details: for K: Lolium multiflorum Lam., herbicidal effect grade: 320 g/ha
In short: as §1

[7] = tested on: Stellaria media; assay: Test Example 4: herbicidal effect by soil treatment (symbol P); details: for P: Stellaria media, herbicidal effect grade: 320 g/ha
In short: as §1

[8] = tested on: corn; assay: Test Example 4: effect on crop by soil treatment (symbol c); details: for c: corn, effect grade on crop: 320 g/ha
In short: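 Diluvial soil (sterilized) in boxes; seeds placed spot-wise alongside weed species; ~1.5 cm covering soil. Greenhouse, 25–30° C.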

[9] = tested on: rice; assay: Test Example 4: effect on crop by soil treatment (symbol b); details: for b: directly sowed rice plant, effect grade on crop: 320 g/ha
In short: (§2)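 Sterilized diluvial soil, spot sowing, ~1.5 cm soil cover; greenhouse 25–30° C.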

[10] = tested on: wheat; assay: Test Example 4: effect on crop by soil treatment (symbol e); details: for e: wheat, effect grade on crop: 320 g/ha
In short: as §2

[11] = tested on: Digitaria ciliaris; assay: Test Example 5: herbicidal effect by foliage application, plastic box (symbol F); details: 320 g/ha, 3 weeks after application
In short: (§3)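 Leaf-applied emulsion, water-diluted to a preset herbicide dose, on two-week-old seedlings raised in a 25° C. to 30° C. greenhouse; injury rated at 3 weeks using earlier criteria.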

[12] = tested on: Apera spica-venti; assay: Test Example 5: herbicidal effect by foliage application, plastic box (symbol L); details: 320 g/ha, 3 weeks after application
In short: as §3

[13] = tested on: Veronica persica; assay: Test Example 5: herbicidal effect by foliage application, plastic box (symbol R); details: 320 g/ha, 3 weeks after application
In short: as §3

[14] = tested on: corn; assay: Test Example 5: effect on crop by foliage application, plastic box (symbol c); details: 320 g/ha, 3 weeks after application
In short: (§4)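 A greenhouse held between 25° C. and 30° C. was used to grow plants sown spot-wise, beneath ~1.5 cm of soil, in boxes of sterilized diluvial soil.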

[15] = tested on: soybean; assay: Test Example 5: effect on crop by foliage application, plastic box (symbol d); details: 320 g/ha, 3 weeks after application
In short: as §4

[16] = tested on: wheat; assay: Test Example 5: effect on crop by foliage application, plastic box (symbol e); details: 320 g/ha, 3 weeks after application
In short: as §4

[17] = tested on: rapeseed; assay: Test Example 5: effect on crop by foliage application, plastic box (symbol g); details: 320 g/ha, 3 weeks after application
In short: as §4

[18] = application herbicide amount 320 g/ha

Row | SMILES | Herbicidal effect grade, B: Scirpus juncoides [1] | herbicidal effect on H (Echinochloa crus-galli var. crus-galli), grade 0-5 [2] | G: Setaria viridis, herbicidal effect grade [3] | H: Echinochloa crus-galli var. crus-galli, herbicidal effect grade [4] | J: Alopecurus myosuroides, herbicidal effect grade [5] | K: Lolium multiflorum Lam., herbicidal effect grade [6] | P: Stellaria media, herbicidal effect grade [7] | c: corn, effect grade on crop [8] | b: directly sowed rice plant, effect grade on crop [9] | e: wheat, effect grade on crop [10] | F: Digitaria ciliaris, herbicidal effect (criteria 0-5) [11] | L: Apera spica-venti, herbicidal effect (criteria 0-5) [12] | R: Veronica persica, herbicidal effect (criteria 0-5) [13] | c: corn, effect on crop (criteria 0-5) [14] | d: soybean, effect on crop (criteria 0-5) [15] | e: wheat, effect on crop (criteria 0-5) [16] | g: rapeseed, effect on crop (criteria 0-5) [17] | other results
1 | CON=C(C)CC1CC(OC(=O)COc2cccc(OC)c2)=C(c2c(C)cc(C)cc2C)C1=O (centres unmarked) [1-068] | 4 (Herbicidal ratio of 70% or higher and lower than 90%) | 5 (Herbicidal ratio of 90% or more (almost completely withered)) | – | – | – | – | – | – | – | – | – | – | – | – | – | – | – | G (Setaria viridis) herbicidal effect grade [3, 18]: 5 (Herbicidal ratio of 90% or more (almost completely withered)); H (Echinochloa crus-galli var. crus-galli) herbicidal effect grade [4, 18]: 5 (Herbicidal ratio of 90% or more (almost completely withered)); J (Alopecurus myosuroides) herbicidal effect grade [5, 18]: 5 (Herbicidal ratio of 90% or more (almost completely withered)); K (Lolium multiflorum Lam.) herbicidal effect grade [6, 18]: 5 (Herbicidal ratio of 90% or more (almost completely withered)); P (Stellaria media) herbicidal effect grade [7, 18]: 0 (Herbicidal ratio of 5% or lower (almost no effect)); c (corn) effect on crop grade [8, 18]: 5 (Herbicidal ratio of 90% or more (almost completely withered)); b (directly sowed rice plant) effect on crop grade [9, 18]: 5 (Herbicidal ratio of 90% or more (almost completely withered)); e (wheat) effect on crop grade [10, 18]: 4 (Herbicidal ratio of 70% or higher and lower than 90%); F: Digitaria ciliaris, herbicidal effect grade [11]: 5 (Herbicidal ratio of 90% or more (almost completely withered)); L: Apera spica-venti, herbicidal effect grade [12]: 5 (Herbicidal ratio of 90% or more (almost completely withered)); R: Veronica persica, herbicidal effect grade [13]: 3 (Herbicidal ratio of 40% or higher and lower than 70%); c: corn, effect on crop grade [14]: 5 (Herbicidal ratio of 90% or more (almost completely withered)); d: soybean, effect on crop grade [15]: 4 (Herbicidal ratio of 70% or higher and lower than 90%); e: wheat, effect on crop grade [16]: 5 (Herbicidal ratio of 90% or more (almost completely withered)); g: rapeseed, effect on crop grade [17]: 4 (Herbicidal ratio of 70% or higher and lower than 90%)
2 | CON=C(C)CC1CC(OC(=O)C=Cc2ccco2)=C(c2c(C)cc(C)cc2C)C1=O (centres unmarked) [1-091] | 5 (Herbicidal ratio of 90% or more (almost completely withered)) | 5 (Herbicidal ratio of 90% or more (almost completely withered)) | 5 (Herbicidal ratio of 90% or more (almost completely withered)) | 5 (Herbicidal ratio of 90% or more (almost completely withered)) | 5 (Herbicidal ratio of 90% or more (almost completely withered)) | 5 (Herbicidal ratio of 90% or more (almost completely withered)) | 0 (Herbicidal ratio of 5% or lower (almost no effect)) | 5 (Herbicidal ratio of 90% or more (almost completely withered)) | 5 (Herbicidal ratio of 90% or more (almost completely withered)) | 4 (Herbicidal ratio of 70% or higher and lower than 90%) | 5 (Herbicidal ratio of 90% or more (almost completely withered)) | 5 (Herbicidal ratio of 90% or more (almost completely withered)) | 1 (Herbicidal ratio of 5% or higher and lower than 20%) | 5 (Herbicidal ratio of 90% or more (almost completely withered)) | 1 (Herbicidal ratio of 5% or higher and lower than 20%) | 5 (Herbicidal ratio of 90% or more (almost completely withered)) | 4 (Herbicidal ratio of 70% or higher and lower than 90%) | –
3 | CON=C(C)CC1CC(OC(=O)COc2ccc(C=O)cc2)=C(c2c(C)cc(C)cc2C)C1=O (centres unmarked) [1-079] | 5 (Herbicidal ratio of 90% or more (almost completely withered)) | 5 (Herbicidal ratio of 90% or more (almost completely withered)) | 5 (Herbicidal ratio of 90% or more (almost completely withered)) | 5 (Herbicidal ratio of 90% or more (almost completely withered)) | 5 (Herbicidal ratio of 90% or more (almost completely withered)) | 5 (Herbicidal ratio of 90% or more (almost completely withered)) | 0 (Herbicidal ratio of 5% or lower (almost no effect)) | 4 (Herbicidal ratio of 70% or higher and lower than 90%) | 5 (Herbicidal ratio of 90% or more (almost completely withered)) | 4 (Herbicidal ratio of 70% or higher and lower than 90%) | 5 (Herbicidal ratio of 90% or more (almost completely withered)) | 5 (Herbicidal ratio of 90% or more (almost completely withered)) | 3 (Herbicidal ratio of 40% or higher and lower than 70%) | 5 (Herbicidal ratio of 90% or more (almost completely withered)) | 4 (Herbicidal ratio of 70% or higher and lower than 90%) | 4 (Herbicidal ratio of 70% or higher and lower than 90%) | 5 (Herbicidal ratio of 90% or more (almost completely withered)) | –
4 | CCCC=CC(=O)OC1=C(c2c(C)cc(C)cc2C)C(=O)C(CC(C)=NOC)C1 (centres unmarked) [1-090] | 5 (Herbicidal ratio of 90% or more (almost completely withered)) | 5 (Herbicidal ratio of 90% or more (almost completely withered)) | 5 (Herbicidal ratio of 90% or more (almost completely withered)) | 5 (Herbicidal ratio of 90% or more (almost completely withered)) | 5 (Herbicidal ratio of 90% or more (almost completely withered)) | 5 (Herbicidal ratio of 90% or more (almost completely withered)) | 0 (Herbicidal ratio of 5% or lower (almost no effect)) | 3 (Herbicidal ratio of 40% or higher and lower than 70%) | 5 (Herbicidal ratio of 90% or more (almost completely withered)) | 4 (Herbicidal ratio of 70% or higher and lower than 90%) | 5 (Herbicidal ratio of 90% or more (almost completely withered)) | 5 (Herbicidal ratio of 90% or more (almost completely withered)) | 3 (Herbicidal ratio of 40% or higher and lower than 70%) | 5 (Herbicidal ratio of 90% or more (almost completely withered)) | 3 (Herbicidal ratio of 40% or higher and lower than 70%) | 5 (Herbicidal ratio of 90% or more (almost completely withered)) | 4 (Herbicidal ratio of 70% or higher and lower than 90%) | –
